Results: publication PMC5891061, “Electrophysiological mechanisms of vandetanib-induced cardiotoxicity: Comparison of action potentials in rabbit Purkinje fibers and pluripotent stem cell-derived cardiomyocytes” (PLoS ONE, 2018)

Experiments:
hERG (IKr) = hERG (IKr) (Homo sapiens, UniProt Q12809); assay: Whole-cell patch clamp, IhERG tail current in transfected HEK293 cells
Source text: (§1) For various aspects of cardiac ion channel study, human embryonic kidney (HEK293; ATCC, Manassas, VA, USA) cells were transiently transfected using lipofectAmin2000 (Gibco BRL, New York, NY, USA) according to the manufacturer’s instructions. The hERG (human ether-ago-go-related gene corresponding to IKr), KCNQ1/KCNE1 (the gene corresponding to IKs), KCNJ2 (the gene corresponding to IK1) or SCN5A (the gene corresponding to INa) cDNA was co-transfected with green fluorescence protein, the surface marker protein, to allow assessment of the transfection efficiency. For the calcium current, enzymatically isolated single rat ventricular myocytes were used. Briefly, the hearts were rapidly excised from anaesthetized Sprague–Dawley rats (250–350 g) and perfused via the aorta on a Langendorff apparatus with an oxygenated normal Tyrode (NT) solution for 5 min. To clear the blood, then perfused with Ca^2+-free normal Tyrode solution for 3 min. […]
(§2) The external solution for recording the IhERG, IKs and INa channel currents was NT solution. […] The calcium current was measured in naïve rat ventricular myocytes, cells were superfused with an external solution that consisted of (in mM): 137 choline-Cl, 5 CsCl, 0.5 MgCl2, 2 4-AP, 10 HEPES, 10 glucose and 1.8 CaCl2 (pH 7.4 with NaOH), whereas the intracellular solution used to fill the pipette had the following ionic solution (in mM): 20 CsCl, 100 Cs-aspartate, 10 EGTA, 10 HEPES, 20 TEA-Cl, 5 Mg-ATP (pH 7.25 with KOH). […]
(§3) pCLAMP (Axon Instruments, Foster City, CA, USA), Origin 8 (OriginLab Corp, Northampton, MA, USA), and Excel (Microsoft, Redmond, WA, USA) were used for data acquisition and analysis. The concentration–response relationships for drug-induced blockage were calculated using SigmaPlot (Systat Software, San Jose, CA, USA). […] Statistical significance was determined using the Student’s t-test and one-way ANOVA with post hoc testing using Dunnett’s method; p < 0.05 was considered to indicate statistical significance. […]

KCNQ1/KCNE1 (IKs) = target: T1, KCNQ1/KCNE1 (IKs) (Homo sapiens, UniProt P51787); assay: Whole-cell patch clamp, IKs in KCNQ1/KCNE1-cotransfected HEK293 cells; assay type: cell-based; conditions: for IKs current: HEK293
T1 construct: expressed in transfected cells; host or cells: HEK293
Source text: For various aspects of cardiac ion channel study, human embryonic kidney (HEK293; ATCC, Manassas, VA, USA) cells were transiently transfected using lipofectAmin2000 (Gibco BRL, New York, NY, USA) according to the manufacturer’s instructions. The hERG (human ether-ago-go-related gene corresponding to IKr), KCNQ1/KCNE1 (the gene corresponding to IKs), KCNJ2 (the gene corresponding to IK1) or SCN5A (the gene corresponding to INa) cDNA was co-transfected with green fluorescence protein, the surface marker protein, to allow assessment of the transfection efficiency. For the calcium current, enzymatically isolated single rat ventricular myocytes were used. Briefly, the hearts were rapidly excised from anaesthetized Sprague–Dawley rats (250–350 g) and perfused via the aorta on a Langendorff apparatus with an oxygenated normal Tyrode (NT) solution for 5 min. To clear the blood, then perfused with Ca^2+-free normal Tyrode solution for 3 min. Next, the heart was perfused with enzyme solution containing 0.6 mg/mL collagenase (Worthington Biomedical Corp., Lakewood, NJ, USA) for 30–40 min. Finally, this enzyme-containing solution was washed out for 5 min. with a high-K^+ and low-Cl^-) Kraft-Bruhe solution. Following the isolation procedure, the left ventricle was dissected out and agitated mechanically with a fire-polished Pasteur pipette in Kraft-Bruhe solution to obtain single myocytes. The isolated myocytes were stored at 4°C until use.
as §2, with “solution. The internal solution for IhERG contained the following (in mM): 130 KCl, 5 EGTA, 10 HEPES, 1 MgCl2, 5 Mg-ATP (pH 7.25 with KOH), and for IKs in the KCNQ1/KCNE1-cotransfected HEK293 cells, 150 KCl, 5 EGTA, 10 HEPES, 2 MgCl2, 1 CaCl2 and 5 Na2-ATP (pH adjusted 7.25 with KOH).” for “solution.”
as §3

KCNJ2 (IK1) = target: T2, KCNJ2 (IK1) (Homo sapiens, UniProt P63252); assay: cell-based
T2 sequence (P63252 1-427): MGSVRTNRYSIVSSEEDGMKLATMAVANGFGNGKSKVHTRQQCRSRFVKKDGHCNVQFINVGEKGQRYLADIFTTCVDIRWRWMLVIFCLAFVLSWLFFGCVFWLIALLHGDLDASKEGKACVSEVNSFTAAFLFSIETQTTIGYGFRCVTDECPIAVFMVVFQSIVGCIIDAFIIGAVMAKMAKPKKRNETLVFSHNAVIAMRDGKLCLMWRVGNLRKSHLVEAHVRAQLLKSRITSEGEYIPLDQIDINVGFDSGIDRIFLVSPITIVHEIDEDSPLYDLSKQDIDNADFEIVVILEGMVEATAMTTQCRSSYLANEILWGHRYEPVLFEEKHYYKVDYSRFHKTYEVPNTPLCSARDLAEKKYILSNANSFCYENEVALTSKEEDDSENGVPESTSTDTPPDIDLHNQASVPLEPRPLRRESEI
Source text: as §1, with “min.” for “min. To clear the blood, then perfused with Ca^2+-free normal Tyrode solution for 3 min.”
as §2

[1] = target: Ca2+-specific inward current (ICa) (Rattus norvegicus, UniProt P22002); assay: Whole-cell patch clamp, ICa in isolated rat ventricular myocytes; assay type: cell-based
Ca2+-specific inward current (ICa), sequence (P22002 whole entry, other chains not shown): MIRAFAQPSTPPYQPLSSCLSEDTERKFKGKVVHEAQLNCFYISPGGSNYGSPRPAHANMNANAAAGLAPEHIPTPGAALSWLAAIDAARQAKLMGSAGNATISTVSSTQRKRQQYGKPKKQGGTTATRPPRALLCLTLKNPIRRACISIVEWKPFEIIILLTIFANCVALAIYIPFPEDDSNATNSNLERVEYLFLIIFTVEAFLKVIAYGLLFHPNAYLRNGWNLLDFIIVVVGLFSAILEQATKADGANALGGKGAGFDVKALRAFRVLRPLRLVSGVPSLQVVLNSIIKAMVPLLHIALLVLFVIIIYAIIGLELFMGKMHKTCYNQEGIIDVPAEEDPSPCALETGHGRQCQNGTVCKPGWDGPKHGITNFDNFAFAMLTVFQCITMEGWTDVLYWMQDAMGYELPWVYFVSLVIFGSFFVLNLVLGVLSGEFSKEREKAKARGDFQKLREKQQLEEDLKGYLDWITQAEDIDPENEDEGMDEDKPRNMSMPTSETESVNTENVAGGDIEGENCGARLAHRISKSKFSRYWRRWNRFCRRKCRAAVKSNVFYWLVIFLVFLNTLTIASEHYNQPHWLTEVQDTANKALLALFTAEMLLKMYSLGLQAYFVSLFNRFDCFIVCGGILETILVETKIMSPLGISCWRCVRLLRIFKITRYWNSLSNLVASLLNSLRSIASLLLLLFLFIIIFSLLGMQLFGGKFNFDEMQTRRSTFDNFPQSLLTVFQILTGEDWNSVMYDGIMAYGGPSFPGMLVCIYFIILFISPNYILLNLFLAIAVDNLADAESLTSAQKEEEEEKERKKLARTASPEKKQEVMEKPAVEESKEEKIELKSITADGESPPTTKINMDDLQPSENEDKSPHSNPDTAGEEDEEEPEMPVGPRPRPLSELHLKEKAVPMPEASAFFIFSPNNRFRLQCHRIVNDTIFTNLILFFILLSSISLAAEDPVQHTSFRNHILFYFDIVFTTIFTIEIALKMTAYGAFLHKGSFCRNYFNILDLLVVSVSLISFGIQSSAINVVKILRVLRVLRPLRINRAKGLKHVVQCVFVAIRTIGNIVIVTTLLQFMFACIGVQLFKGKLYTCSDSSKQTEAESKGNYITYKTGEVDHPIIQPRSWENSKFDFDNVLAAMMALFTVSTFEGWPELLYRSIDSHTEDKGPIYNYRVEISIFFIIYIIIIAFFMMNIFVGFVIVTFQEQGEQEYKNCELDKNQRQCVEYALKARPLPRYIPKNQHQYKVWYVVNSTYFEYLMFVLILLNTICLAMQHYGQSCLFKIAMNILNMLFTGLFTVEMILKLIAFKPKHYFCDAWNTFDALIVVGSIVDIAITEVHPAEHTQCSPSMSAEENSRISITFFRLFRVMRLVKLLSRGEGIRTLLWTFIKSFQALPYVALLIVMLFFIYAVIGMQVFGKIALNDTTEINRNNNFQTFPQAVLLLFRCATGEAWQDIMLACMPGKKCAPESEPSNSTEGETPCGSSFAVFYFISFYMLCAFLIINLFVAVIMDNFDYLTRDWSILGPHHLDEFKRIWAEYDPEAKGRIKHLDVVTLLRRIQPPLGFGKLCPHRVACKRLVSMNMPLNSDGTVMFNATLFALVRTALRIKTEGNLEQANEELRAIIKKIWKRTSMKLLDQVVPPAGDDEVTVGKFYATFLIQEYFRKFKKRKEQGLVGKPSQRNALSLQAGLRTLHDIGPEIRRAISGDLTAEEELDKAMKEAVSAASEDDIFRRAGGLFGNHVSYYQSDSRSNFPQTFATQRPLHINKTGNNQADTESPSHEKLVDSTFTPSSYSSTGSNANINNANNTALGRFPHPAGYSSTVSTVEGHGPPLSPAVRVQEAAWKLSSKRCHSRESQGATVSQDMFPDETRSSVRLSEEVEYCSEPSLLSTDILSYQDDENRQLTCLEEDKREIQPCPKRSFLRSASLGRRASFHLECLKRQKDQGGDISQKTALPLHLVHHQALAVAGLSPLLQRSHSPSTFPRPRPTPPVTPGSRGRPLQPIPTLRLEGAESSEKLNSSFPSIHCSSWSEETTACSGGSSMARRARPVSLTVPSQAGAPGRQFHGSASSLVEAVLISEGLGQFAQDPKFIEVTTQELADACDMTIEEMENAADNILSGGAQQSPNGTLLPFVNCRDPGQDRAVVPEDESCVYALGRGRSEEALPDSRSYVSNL
Ca2+-specific inward current (ICa), sequence (P54290 25-1091 partner, other chains not shown): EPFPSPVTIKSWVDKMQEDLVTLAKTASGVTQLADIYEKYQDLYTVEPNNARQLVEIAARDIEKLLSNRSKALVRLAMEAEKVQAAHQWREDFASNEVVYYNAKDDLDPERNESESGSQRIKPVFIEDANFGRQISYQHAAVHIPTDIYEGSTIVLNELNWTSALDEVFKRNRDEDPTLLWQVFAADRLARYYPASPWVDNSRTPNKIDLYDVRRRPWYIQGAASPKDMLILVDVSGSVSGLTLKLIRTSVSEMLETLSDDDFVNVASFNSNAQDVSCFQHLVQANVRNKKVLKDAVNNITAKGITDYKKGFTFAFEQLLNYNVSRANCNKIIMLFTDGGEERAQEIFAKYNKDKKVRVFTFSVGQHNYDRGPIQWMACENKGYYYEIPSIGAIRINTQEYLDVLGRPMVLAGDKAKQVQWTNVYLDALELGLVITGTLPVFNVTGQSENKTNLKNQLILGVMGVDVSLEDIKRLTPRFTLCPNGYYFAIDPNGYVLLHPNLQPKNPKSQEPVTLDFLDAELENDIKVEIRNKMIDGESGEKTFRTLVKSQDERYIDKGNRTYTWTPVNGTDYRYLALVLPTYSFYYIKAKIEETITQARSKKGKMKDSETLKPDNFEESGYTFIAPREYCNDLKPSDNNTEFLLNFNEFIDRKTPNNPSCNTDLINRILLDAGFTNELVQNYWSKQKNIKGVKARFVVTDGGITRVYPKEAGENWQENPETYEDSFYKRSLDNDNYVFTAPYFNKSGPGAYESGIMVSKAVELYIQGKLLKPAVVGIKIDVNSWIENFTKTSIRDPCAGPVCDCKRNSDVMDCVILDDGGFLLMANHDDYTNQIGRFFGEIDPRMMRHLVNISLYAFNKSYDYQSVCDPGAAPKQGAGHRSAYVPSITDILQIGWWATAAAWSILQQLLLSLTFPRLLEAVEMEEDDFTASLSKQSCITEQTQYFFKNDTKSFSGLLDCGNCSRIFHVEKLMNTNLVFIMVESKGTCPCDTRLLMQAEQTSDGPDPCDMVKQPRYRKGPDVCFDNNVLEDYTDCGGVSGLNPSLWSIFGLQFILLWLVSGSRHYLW
Source text: as §1, §2, §3

rabbit Purkinje fibers = assay: Action potential recording in rabbit Purkinje fiber; conditions: for APA / APD50 / APD90 / RMP / Vmax: 1 Hz pacing
Method: This study was conducted in facilities approved by the AAALAC (Association for Assessment and Accreditation of Laboratory Animal Care) International. All procedures were approved by our Institutional Animal Care and Use Committee (IACUC). Female New Zealand white rabbits (1.8–2 kg) were anaesthetized with pentobarbital sodium (45 mg/kg intravenously). Their hearts were rapidly removed and placed in normal Tyrode’s solution: 143 NaCl; 5.4 KCl; 5.0 HEPES (4-(2-hydroxyethyl)-1-piperazineethanesulfonic acid); 0.33 H2PO4; 0.5 MgCl2; 16.6 Glucose; 1.8 CaCl2; pH 7.4 aerated with O2 gas. Purkinje fibers (PFs) were excised from the left ventricle and stored in a chamber superfused with normal Tyrode’s solution at 37.0 ± 0.5 °C and 5 mL/min. Action potentials (APs) were recorded using the conventional intracellular recording technique. The tissue preparation was driven by electrical pulses (duration = 2 ms, frequencies of 1 Hz). The signals of APs were amplified with Geneclamp 500B (Molecular Devices Corporation, Sunnyvale, CA, USA) and recorded by Notocord systems (Croissy-sur-Seine, France) for off-line analysis.

hERG (IKr), sequence (Q12809 whole entry): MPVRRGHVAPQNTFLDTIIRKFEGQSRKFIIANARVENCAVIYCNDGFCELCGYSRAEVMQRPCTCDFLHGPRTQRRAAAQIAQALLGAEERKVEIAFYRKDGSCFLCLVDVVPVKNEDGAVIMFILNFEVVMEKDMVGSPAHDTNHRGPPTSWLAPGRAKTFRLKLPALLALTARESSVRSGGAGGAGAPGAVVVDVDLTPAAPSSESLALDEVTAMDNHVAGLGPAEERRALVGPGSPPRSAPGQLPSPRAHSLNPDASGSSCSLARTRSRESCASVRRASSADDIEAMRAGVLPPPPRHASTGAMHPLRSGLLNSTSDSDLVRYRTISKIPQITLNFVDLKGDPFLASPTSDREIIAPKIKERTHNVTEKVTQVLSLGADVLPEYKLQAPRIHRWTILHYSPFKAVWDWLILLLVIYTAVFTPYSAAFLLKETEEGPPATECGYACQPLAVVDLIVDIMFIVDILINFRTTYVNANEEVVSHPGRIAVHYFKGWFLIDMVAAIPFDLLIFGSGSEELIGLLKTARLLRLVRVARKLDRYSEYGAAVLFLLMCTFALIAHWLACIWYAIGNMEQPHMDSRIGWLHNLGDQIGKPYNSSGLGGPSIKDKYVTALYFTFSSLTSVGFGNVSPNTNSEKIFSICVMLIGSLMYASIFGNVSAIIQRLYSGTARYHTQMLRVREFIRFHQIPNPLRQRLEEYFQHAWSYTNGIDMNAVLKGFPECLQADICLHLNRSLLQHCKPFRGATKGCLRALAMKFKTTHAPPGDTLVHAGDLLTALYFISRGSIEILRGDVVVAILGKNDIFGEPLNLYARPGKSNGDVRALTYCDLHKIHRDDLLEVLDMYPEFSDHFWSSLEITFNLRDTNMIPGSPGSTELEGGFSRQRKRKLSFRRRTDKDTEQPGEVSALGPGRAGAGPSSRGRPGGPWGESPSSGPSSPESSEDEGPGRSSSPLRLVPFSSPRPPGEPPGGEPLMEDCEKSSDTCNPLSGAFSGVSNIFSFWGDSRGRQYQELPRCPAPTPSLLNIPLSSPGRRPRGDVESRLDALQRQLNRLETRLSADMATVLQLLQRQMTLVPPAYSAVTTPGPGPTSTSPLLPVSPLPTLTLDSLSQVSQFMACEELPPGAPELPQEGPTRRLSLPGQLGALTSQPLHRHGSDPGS

## COc1cc2c(Nc3ccc(Br)cc3F)ncnc2cc1OCC1CCN(C)CC1 [Vandetanib]
hERG (IKr); 0.3 μM
  Reduction of IhERG current amplitude: 17.04%
hERG (IKr); 1 μM
  Reduction of IhERG current amplitude: 45.32%
hERG (IKr); 3 μM
  Reduction of IhERG current amplitude: 76.05%
KCNQ1/KCNE1 (IKs); 10 μM
  IKs current: 840.7 ± 180.3
KCNQ1/KCNE1 (IKs); 30 μM
  IKs current: 406.5 ± 113.7
KCNQ1/KCNE1 (IKs); 100 μM
  IKs current: 108.2 ± 8.3
KCNQ1/KCNE1 (IKs); HEK293 cells
  IC50: 28 ± 1.81 µM
KCNJ2 (IK1)
  IC50: 94.5 ± 4.57 µM
[1]; 10 μM
  ICa current: -1639.5 ± 238.1
[1]; 30 μM
  ICa current: -990.7 ± 97.8
[1]; 100 μM
  ICa current: -219.7 ± 24.4
Rabbit Purkinje fibers; 0.3 μM
  APA: 118.0 ± 1.9 mV
  APD50: 218.9 ± 20.3 ms
  APD90: 300.1 ± 21.0 ms
  RMP: -82.2 ± 0.4 mV
  Vmax: 380.9 ± 82.9 V/s
Rabbit Purkinje fibers; 1 μM
  APD90 increase compared to vehicle control: 31%
  APA: 118.1 ± 2.1 mV
  APD90: 354.0 ± 25.2 ms
  RMP: -82.2 ± 1.2 mV
  Vmax: 379.9 ± 91.1 V/s
Rabbit Purkinje fibers; 3 μM
  APD50 increase compared to vehicle control: 38.9%
  APD90 increase compared to vehicle control: 55.6%
  APA: 118.1 ± 1.5 mV
  APD50: 289.6 ± 21.4 ms
  APD90: 417.1 ± 20.6 ms
  RMP: -82.3 ± 2.5 mV
  Vmax: 382.8 ± 64.6 V/s
Rabbit Purkinje fibers; concentrations up to 3 μM
  Effect on RMP, APA, and Vmax: did not significantly alter
